According to US7062219B2, “Protein fragment complementation assays for high-throughput and high-content screening” (Odyssey Thera Inc., priority 1997, dated 2006):
“Also recorded” adds a separate entry of the source. Each block holds one compound with its values, some of them ahead of it.

How the values were obtained:
[1] = test system: p50/p65 complex; assay: stable HEK293T p50/p65 YFP PCA cell line, nuclear translocation (N:C ratio); format: cell-based; conditions: 10 micromolar compound, 25 ng/ml TNF 30 minutes
Method: Stable cell lines represent the gold standard for HTS since the assays can be reconstructed at any time from frozen stocks of cells. […] First, cells were co-transfected with YFP[2]-p65 encoding vectors, and stable cell lines were selected using 100 micrograms/ml of Hygromycin B (Invitrogen). Selected cell lines were then transfected with YFP[1]-p50. Stable cell lines expressing YFP[1]-p50/YFP[2]-p65 were isolated following double antibiotic selection with 50 μg/ml Hygromycin B and 500 μg/ml Zeocin. Cell clones stably expressing the fusion genes were identified by immunoblot analysis and fluorescence microscopy. A single cell line of each transfectant was selected for further characterization. Fluorescence of these lines is stable over at least 25 passages (data not shown). A stable, MEK/ERK cell line—constructed as described below—was used as a control for TNF effects. Fugene 6 (Roche) was used for all the transfections according to manufacturer's directions. Cells stably expressing YFP[1]-p50/YFP[2]-p65 were seeded at 20,000 cells/well in black-walled poly-lysine coated 96 well plate (Greiner). Twenty-four hours later, the cells were incubated with human TNF-alpha (Roche) for 30 min. Nuclei were stained with Hoechst 33342 (Molecular Probes) at 10 micrograms/ml for 10 min. Cells were rinsed with HBSS (Invitrogen) and kept in the same buffer. Fluorescence was visualized and images were acquired using a Discovery-1 automated fluorescence imager (Molecular Devices, Inc.) equipped with excitation and emission filters 470/35 and 535/60, respectively. […] For the high throughput screening campaign described below, cells were pretreated with compounds (10 micromolar) for 60 minutes and then stimulated with TNFalpha for 30 minutes in the presence of drugs. Cells were then fixed with 2% formaldehyde in HBSS and subsequently stained with Hoechst 33342. All liquid handling was done using a Biomek FX (Beckman) instrument and images were acquired as described above. Images were analyzed using Image J. Translocation is assessed by calculating the nuclear/cytoplasmic ratio of the mean fluorescence intensity for a population of cells (denoted as n) over several images for a given condition.
Genesis Plus is a collection of 960 diverse compounds, and includes compounds with known toxicity or fluorescent properties. Inclusion of compounds with such properties is important in HTS assay validation, as they might complicate analysis. The final concentration of compounds in wells was 10 micromolar, and all wells contained 0.5% DMSO concentration. […] Following fixation and staining of nuclei, fluorescence was analyzed on the automated fluorescent microscopy platform (Discovery 1; Universal Imaging/Molecular Devices Corp.). […]

[2] = molecular target: T1, Chk1/p53 interaction (Homo sapiens, UniProt O14757); assay: beta-lactamase PCA (BLA PCA) for Chk1/p53 in HEK293E cells; format: cell-based; conditions: HEK293E cells treated with 300 nM camptothecin; 10 micromolar DBH, 50 micromolar Go6976
T1 construct: expressed in transfected cells; host or cells: HEK293E
T1 sequence (O14757 1-476): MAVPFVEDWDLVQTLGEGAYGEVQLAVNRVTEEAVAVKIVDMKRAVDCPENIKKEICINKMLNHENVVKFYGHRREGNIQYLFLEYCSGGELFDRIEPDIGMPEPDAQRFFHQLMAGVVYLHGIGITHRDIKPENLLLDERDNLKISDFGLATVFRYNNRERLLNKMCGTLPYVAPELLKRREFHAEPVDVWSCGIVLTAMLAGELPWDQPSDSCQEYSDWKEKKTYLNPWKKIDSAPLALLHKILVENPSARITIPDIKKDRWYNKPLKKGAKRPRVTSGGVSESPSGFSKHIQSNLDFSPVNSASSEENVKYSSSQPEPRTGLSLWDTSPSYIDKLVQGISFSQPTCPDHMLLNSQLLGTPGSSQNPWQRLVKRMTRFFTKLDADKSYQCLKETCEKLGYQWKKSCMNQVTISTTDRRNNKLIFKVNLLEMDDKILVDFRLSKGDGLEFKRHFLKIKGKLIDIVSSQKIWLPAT
Method: For the BLA PCA, the genes of interest—which were known to be involved in DNA damage response pathways—were fused to BLA reporter fragments, and co-transfected in pairs (in 6 replicates) into HEK293E cells. Specifically, interactions between two key proteins, p53 and the checkpoint kinase, Chk1, were evaluated for their response to the DNA damaging agent camptothecin (CPT) and various known drugs or compounds. Full length cDNAs (sequence verified) encoding p53 [NM_000546] and Chk1 [NM_001274] were amplified by PCR and the resulting fragments fused in-frame to the 3′-end of BLA[1] or BLA[2] through a flexible 10 amino acid linker. The resulting BLA[1]-p53, BLA[2]-p53, and BLA[2]-Chk1 constructs contained an EBNA-1 origin for episomal replication in HEK293E cells, but no selectable markers for long term maintenance in cell culture. All constructs were sequenced to confirm the integrity of the reporter-gene fusion prior to use in assays. […] Hydrolysis of the beta-lactam ring by reconstituted BLA releases free coumarin which has a blue fluorescence. […] For each protein pair, the rate of hydrolysis of the substrate was determined immediately after addition of substrate by a kinetic assay on a Molecular Devices Gemini XS plate reader. Accumulated fluorescent substrate was excited at 345 nm and detected at 440 nm every 10 minutes for a 90 minute period. […]

[3] = test system: p53/p53 interaction; assay: high-content IFP PCA for p53/p53, nuclear mean fluorescence; format: cell-based, human; conditions: Trichostatin A 0.5 micromolar; for effect on p53/p53 interaction (nuclear mean fluorescence) in the presence of CPT: 500 nM CPT 16 hours, MS-275 10 micromolar, HA 14-1 2 micromolar; for effect on p53/p53 interaction in both assays (absence and presence of CPT): unstimulated and 500 nM CPT-stimulated, LY294002 25 micromolar, SB 203580 25 micromolar, Geldanamycin 2.5 micromolar
Description: Open reading frames of full-length human p53 were fused in-frame to the 5′-end of IFP[1] and the 3′-end of IFP[2] to generate the following constructs in a pcDNA3.1 (Invitrogen) backbone: p53-IFP[1] and IFP[2]-p53. The final p53-IFP[1] construct contained a Zeocin selectable marker, while the IFP[2]-p53 construct contained a hygromycin selectable marker. All fusions were through a flexible linker encoding a 10-amino acid peptide (GlyGlyGlyGlySer)2, also referred to throughout as (GGGGS)2 (SEQ ID No.1). DNAs from recombinant constructs were isolated on a Beckman FX robotic workstation (Beckman Coulter, Fullerton, Calif.) using Qiagen Turbo BioRobot Prep kits or manually using Qiagen Midi Prep kits. Isolated DNAs were quantitated and then normalized to a concentration of 50 ng/microliter.
Approximately 24 hours prior to transfection cells were seeded into 96 well poly-D-Lysine coated plates (Greiner) using a Multidrop 384 peristaltic pump system (Thermo Electron Corp., Waltham, Mass.) at a density of 7,500 cells per well. A total of 100 ng of DNA (p53–IFP[1] and IFP[2]-p53) was co-transfected using Fugene 6 (Roche) according to the manufacturer's protocol. Cells expressing the PCA pair in the absence of stimulation were incubated with medium containing drugs for 30 minutes, 90 minutes, and 8 hours. Alternatively, cells stimulated with camptothecin (CPT) were pre-treated with drugs for 2 hours, then incubated with 500 nM CPT for an additional 16 hours in the presence of the following test compounds that were known or suspected to affect the p53 pathway: CPT, genistein, Trichostatin A, MS-275, LY294002, SB203580, HA14-1, or Geldanamycin, at the concentrations indicated in the Legend to FIG. 4. […] Fluorescence resulting from IFP PCA was captured using the Discovery-1automated fluorescence imager (Molecular Devices, Inc.) equipped with a robot arm (CRS Catalyst Express; Thermo Electron Corp., Waltham, Mass.). Images were acquired for YFP fluorescence (excitation filter: 480/40 nm; emission filter 535/50 nm), Hoechst fluorescence (excitation filter: 360/40 nm; emission filter 465/30 nm), and Texas Red fluorescence (excitation filter: 560/50 nm; emission filter 650/40 nm). […]
Automated image analysis was performed using Image J freeware to quantitate the level of fluorescence contributed by the PCA in each image. For the p53:p53 PCA, background contributed by cellular auto-fluorescence was subtracted from each image, then the mean pixel fluorescence intensity was determined within the nucleus of each cell. […] Quantitative values for the unstimulated PCA are shown in mauve, with data from the CPT-stimulated assay shown in blue. […]

Structure (SMILES): Cn1c(=O)[nH]c(=O)c2[nH]cnc21 [3-methylxanthine]
result in Genesis Plus library screen of p50/p65 PCA [1]: called as hits

effect on the interaction between Chk1 and p53 (mean rate of hydrolysis of BLA substrate) [2]: significant effects
Structure (SMILES): NC1=N/C(=C2/CCNC(=O)c3[nH]ccc32)C(=O)N1 [DBH]

effect on the interaction between Chk1 and p53 (mean rate of hydrolysis of BLA substrate) [2]: significant effects
Structure (SMILES): Cn1c2ccccc2c2c3c(c4c5ccccc5n(CCC#N)c4c21)CNC3=O [Go6976]

Structure (SMILES): Nc1ccccc1NC(=O)c1ccc(CNC(=O)OCc2cccnc2)cc1 [MS-275]
effect on p53/p53 interaction (nuclear mean fluorescence) in the presence of CPT [3]: significantly stimulated

Structure (SMILES): C[S+]([O-])c1ccc(-c2nc(-c3ccncc3)c(-c3ccc(F)cc3)[nH]2)cc1 (centres unmarked) [SB 203580]
effect on p53/p53 interaction in both assays (absence and presence of CPT) [3]: increased association

Structure (SMILES): CC(/C=C/C(=O)NO)=C\[C@@H](C)C(=O)c1ccc(N(C)C)cc1 [Trichostatin A]
effect on p53/p53 interaction (nuclear mean fluorescence) in the presence of CPT [3]: dramatic increase; also recorded: significantly stimulated
effect on p53/p53 interaction in both assays (absence and presence of CPT) [3]: potentiating effect

Structure (SMILES): C=C(C)[C@H]1Cc2c(ccc3c2O[C@@H]2COc4cc(OC)c(OC)cc4[C@@H]2C3=O)O1 [rotenone]
result in Genesis Plus library screen of p50/p65 PCA [1]: called as hits
